The term AUC(0-inf) denotes the area under the concentration-time curve extrapolated to infinity. The low end stands for low exposure, the high end for high exposure. What is called Cmax is the peak of the concentration-time curve.

Series [1] can be described thus: Human clinical biocomparison study: oral absorption from grazoprevir and Formulation 3 with and without pH-raising medication. Conditions: in vivo, 100 mg grazoprevir/50 mg Compound I, healthy subjects. As for the experimental part:
The Formulation 2 spray dried intermediate was blended and roller compacted along with microcrystalline cellulose, lactose, croscarmellose sodium, sodium chloride, colloidal silicon dioxide, and magnesium stearate. Only half of the magnesium stearate was added prior to roller compaction. The second half of the magnesium stearate and the remaining croscarmellose sodium was added after roller compaction and the resulting powder mix was blended further.
The oral absorption obtained from grazoprevir and Formulation 3 with (Treatment 2) and without (Treatment 1) co-administration of a pH-raising medication was evaluated as part of human clinical study.

The nature of series [2]: Human clinical biocomparison study: oral absorption of Formulation 1 with and without pH-raising medication. To be noted: in vivo, 100 mg, healthy subjects. As for the experimental part: FIG. 1 outlines the process used to make Formulation 1.
The oral absorption obtained from Formulation 1 with and without pH-modifying medications was evaluated as part of human clinical study. Formulation 1 was dosed by itself (Treatment 1) and in the presence of a medication that raises gastric pH (Treatment 2).

[3] abbreviates: Treatment 1: grazoprevir and Formulation 3 without pH-raising medication.
Where [4] appears, read: Treatment 1: Formulation 1 dosed by itself.

Turning to `COC(=O)N[C@H](C(=O)N1CCC[C@H]1c1nc(-c2ccc3c(c2)O[C@@H](c2ccccc2)n2c-3cc3cc(-c4c[nH]c([C@@H]5CCCN5C(=O)[C@@H](NC(=O)OC)C(C)C)n4)ccc32)c[nH]1)C(C)C` [Compound I, dimethyl N,N′-([(6S)-6-phenylindolo[1,2-c][1,3]benzoxazine-3,10-diyl]bis {1H-imidazole-5,2-diyl-(2S)-pyrrolidine-2,1-diyl[(2S)-3-methyl-l-oxobutane-1,2-diyl]})dicarbamate], the AUC(0-inf) in series [1] (setting [3]) is 1970 nM·h; in series [1] (Treatment 2: grazoprevir and Formulation 3 with pH-raising medication), 1790 nM·h; in series [2] (setting [4]) it was 3770 nM·h; in series [2] (Treatment 2: Formulation 1 with pH-raising medication), 1570 nM·h. Further, the Cmax is 0.102 µM in series [1] (setting [3]) and 0.216 µM in series [2] (setting [4]).
